Data: ChEMBL document CHEMBL3875212, “Novel thrombopoietin mimetic peptides bind c-Mpl receptor: Synthesis, biological evaluation and molecular modeling” (Bioorg Med Chem, 2017)
Calls of active or inactive are those of the source. The calls are words filed in the database; no cut-off is given here. Residues, ends and D or L forms follow the SMILES beside them.

Molecular target: T1, Thrombopoietin receptor (Homo sapiens) (UniProt P40238)
T1 sequence (whole entry): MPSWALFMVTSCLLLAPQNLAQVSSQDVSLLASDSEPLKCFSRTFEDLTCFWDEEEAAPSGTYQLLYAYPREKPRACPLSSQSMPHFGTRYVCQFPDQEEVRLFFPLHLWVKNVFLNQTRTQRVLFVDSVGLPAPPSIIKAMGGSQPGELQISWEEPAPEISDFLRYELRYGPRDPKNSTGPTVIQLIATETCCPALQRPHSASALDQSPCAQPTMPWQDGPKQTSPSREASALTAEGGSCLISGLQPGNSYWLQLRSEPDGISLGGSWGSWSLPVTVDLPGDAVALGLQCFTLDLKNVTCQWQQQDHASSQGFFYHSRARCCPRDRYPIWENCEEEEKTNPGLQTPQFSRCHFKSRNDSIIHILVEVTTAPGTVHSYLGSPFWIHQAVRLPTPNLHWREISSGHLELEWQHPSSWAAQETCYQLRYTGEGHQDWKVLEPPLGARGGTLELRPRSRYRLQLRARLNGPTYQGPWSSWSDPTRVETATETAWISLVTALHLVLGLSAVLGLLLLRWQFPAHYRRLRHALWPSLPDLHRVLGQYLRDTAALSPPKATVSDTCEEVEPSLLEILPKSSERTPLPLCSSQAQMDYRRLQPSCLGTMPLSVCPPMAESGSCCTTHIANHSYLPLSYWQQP
Experiment: Binding affinity to c-Mpl (unknown origin) expressed in […] NIH-3T3 cells after 48 hrs by dual-glo luciferase reporter gene assay relative to control
Type: cell-based
Conditions: NIH3T3

Structure (SMILES) | Activity
CC[C@H](C)[C@H](N)C(=O)N[C@@H](CCC(=O)O)C(=O)NCC(=O)N1CCC[C@H]1C(=O)N[C@H](C(=O)N[C@@H](CC(C)C)C(=O)N[C@@H](CCCNC(=N)N)C(=O)N[C@@H](CCC(N)=O)C(=O)N[C@@H](Cc1c[nH]c2ccccc12)C(=O)N[C@@H](CC(C)C)C(=O)N[C@@H](C)C(=O)N[C@@H](C)C(=O)N[C@@H](CCCNC(=N)N)C(=O)N[C@@H](C)C(=O)NCC(=O)NCC(=O)N1CCC[C@H]1C(=O)N[C@@H](CO)C(=O)NCC(=O)N[C@H](C(=O)N[C@@H](CCC(=O)O)C(=O)NCC(=O)N1CCC[C@H]1C(=O)N[C@H](C(=O)N[C@@H](CC(C)C)C(=O)N[C@@H](CCCNC(=N)N)C(=O)N[C@@H](CCC(N)=O)C(=O)N[C@@H](Cc1c[nH]c2ccccc12)C(=O)N[C@@H](CC(C)C)C(=O)N[C@@H](C)C(=O)N[C@@H](C)C(=O)N[C@@H](CCCNC(=N)N)C(=O)N[C@@H](C)C(=O)O)[C@@H](C)O)[C@@H](C)CC)[C@@H](C)O (H-IEGPTLRQWLAARAGGPSGIEGPTLRQWLAARA-OH) | Active
CC[C@H](C)[C@H](N)C(=O)N[C@@H](CCC(=O)O)C(=O)NCC(=O)N1CCC[C@H]1C(=O)N[C@H](C(=O)N[C@@H](CC(C)C)C(=O)N[C@@H](CCCNC(=N)N)C(=O)N[C@@H](CCC(N)=O)C(=O)N[C@@H](Cc1c[nH]c2ccccc12)C(=O)N[C@@H](CC(C)C)C(=O)N[C@@H](C)C(=O)N[C@@H](C)C(=O)N[C@@H](CCCNC(=N)N)C(=O)N[C@@H](C)C(=O)NCC(=O)NCC(=O)NCC(=O)N[C@@H](CO)C(=O)NCC(=O)N[C@H](C(=O)N[C@@H](CCC(=O)O)C(=O)NCC(=O)N1CCC[C@H]1C(=O)N[C@H](C(=O)N[C@@H](CC(C)C)C(=O)N[C@@H](CCCNC(=N)N)C(=O)N[C@@H](CCC(N)=O)C(=O)N[C@@H](Cc1c[nH]c2ccccc12)C(=O)N[C@@H](CC(C)C)C(=O)N[C@@H](C)C(=O)N[C@@H](C)C(=O)N[C@@H](CCCNC(=N)N)C(=O)N[C@@H](C)C(=O)O)[C@@H](C)O)[C@@H](C)CC)[C@@H](C)O (H-IEGPTLRQWLAARAGGGSGIEGPTLRQWLAARA-OH) | Active
CC[C@H](C)[C@H](N)C(=O)N[C@@H](CCC(=O)O)C(=O)NCC(=O)N1CCC[C@H]1C(=O)N[C@H](C(=O)N[C@@H](CC(C)C)C(=O)N[C@@H](CCCNC(=N)N)C(=O)N[C@@H](CCC(N)=O)C(=O)N[C@@H](Cc1c[nH]c2ccccc12)C(=O)N[C@@H](CC(C)C)C(=O)N[C@@H](C)C(=O)N[C@@H](C)C(=O)N[C@@H](CCCNC(=N)N)C(=O)N[C@@H](C)C(=O)NCC(=O)NCC(=O)NCC(=O)NCC(=O)N[C@@H](CO)C(=O)NCC(=O)NCC(=O)NCC(=O)N[C@@H](CO)C(=O)NCC(=O)N[C@H](C(=O)N[C@@H](CCC(=O)O)C(=O)NCC(=O)N1CCC[C@H]1C(=O)N[C@H](C(=O)N[C@@H](CC(C)C)C(=O)N[C@@H](CCCNC(=N)N)C(=O)N[C@@H](CCC(N)=O)C(=O)N[C@@H](Cc1c[nH]c2ccccc12)C(=O)N[C@@H](CC(C)C)C(=O)N[C@@H](C)C(=O)N[C@@H](C)C(=O)N[C@@H](CCCNC(=N)N)C(=O)N[C@@H](C)C(=O)O)[C@@H](C)O)[C@@H](C)CC)[C@@H](C)O (H-IEGPTLRQWLAARAGGGGSGGGSGIEGPTLRQWLAARA-OH) | Active
